The record followed here is US20230016424A1, “HYBRID AMIDE DERIVATIVES OF AMPHOTERICIN B” (The Board of Trustees of the University of Illinois, priority 2019, published 2023).

The structures appear in SMILES notation.

The first test deals with C. albicans SN250, C. albicans, C. krusei, C. glabrata, C. tropicalis, A. fumigatus 91, 1163, 1100. As to the kind of experiment: Average MIC over the tested strains. The format is cell-based. Particulars: Table 7, C16 amide AmB variants.
On to `CC1C=CC=CC=CC=CC=CC=CC=CC(OC2OC(C)C(O)C(N)C2O)CC2OC(O)(CC(O)CC(O)C(O)CCC(O)CC(O)CC(=O)OC(C)C(C)C1O)CC(O)C2C(=O)NC1C(CO)OC(n2cnc3c(N)ncnc32)C1O` (mixture of isomers) [EA], for which the “MIC (Average Minimum Inhibition Concentration)” value came to 0.422 µM.

In the case of `CC1C=CC=CC=CC=CC=CC=CC=CC(OC2OC(C)C(O)C(N)C2O)CC2OC(O)(CC(O)CC(O)C(O)CCC(O)CC(O)CC(=O)OC(C)C(C)C1O)CC(O)C2C(=O)NC1CCCC1O` (mixture of isomers) [EV], the “MIC (Average Minimum Inhibition Concentration)” value came out at 0.500 µM.

For the compound `CC1C=CC=CC=CC=CC=CC=CC=CC(OC2OC(C)C(O)C(N)C2O)CC2OC(O)(CC(O)CC(O)C(O)CCC(O)CC(O)CC(=O)OC(C)C(C)C1O)CC(O)C2C(=O)NC1C(O)OC(CO)C(O)C1O` (mixture of isomers) [FK], the “MIC (Average Minimum Inhibition Concentration)” value is 0.211 µM.

Turning to `COC1OC(CO)C(O)C(NC(=O)C2C(O)CC3(O)CC(O)CC(O)C(O)CCC(O)CC(O)CC(=O)OC(C)C(C)C(O)C(C)C=CC=CC=CC=CC=CC=CC=CC(OC4OC(C)C(O)C(N)C4O)CC2O3)C1O` (mixture of isomers) [FO], the “MIC (Average Minimum Inhibition Concentration)” value was 0.258 µM.

`CCC(O)CNC(=O)C1C(O)CC2(O)CC(O)CC(O)C(O)CCC(O)CC(O)CC(=O)OC(C)C(C)C(O)C(C)C=CC=CC=CC=CC=CC=CC=CC(OC3OC(C)C(O)C(N)C3O)CC1O2` (mixture of isomers) [FX]: the “MIC (Average Minimum Inhibition Concentration)” value is 0.313 µM.

As to `CC1C=CC=CC=CC=CC=CC=CC=CC(OC2OC(C)C(O)C(N)C2O)CC2OC(O)(CC(O)CC(O)C(O)CCC(O)CC(O)CC(=O)OC(C)C(C)C1O)CC(O)C2C(=O)NC1C(O)COC(O)C1O` (mixture of isomers) [GE], the “MIC (Average Minimum Inhibition Concentration)” value was 0.320 µM.

On to `CC1C=CC=CC=CC=CC=CC=CC=CC(OC2OC(C)C(O)C(N)C2O)CC2OC(O)(CC(O)CC(O)C(O)CCC(O)CC(O)CC(=O)OC(C)C(C)C1O)CC(O)C2C(=O)NC1C(O)OC(CO)C(O)C1O` (mixture of isomers) [GL], for which the “MIC (Average Minimum Inhibition Concentration)” value was determined as 0.344 µM.

As to `CC1C=CC=CC=CC=CC=CC=CC=CC(OC2OC(C)C(O)C(N)C2O)CC2OC(O)(CC(O)CC(O)C(O)CCC(O)CC(O)CC(=O)OC(C)C(C)C1O)CC(O)C2C(=O)NCCN(C)C` (stereo not drawn) [DA], the “MIC (Average Minimum Inhibition Concentration)” value was 0.352 µM.

Consider `CC1C=CC=CC=CC=CC=CC=CC=CC(OC2OC(C)C(O)C(N)C2O)CC2OC(O)(CC(O)CC(O)C(O)CCC(O)CC(O)CC(=O)OC(C)C(C)C1O)CC(O)C2C(=O)NC(CO)CO` (stereo not drawn) [DD], for which the “MIC (Average Minimum Inhibition Concentration)” value is 0.375 µM.

Take `CC1C=CC=CC=CC=CC=CC=CC=CC(OC2OC(C)C(O)C(N)C2O)CC2OC(O)(CC(O)CC(O)C(O)CCC(O)CC(O)CC(=O)OC(C)C(C)C1O)CC(O)C2C(=O)NCC1OC(n2cnc3c(=O)[nH]c(N)nc32)C(O)C1O` (stereo not drawn) [DM]: the “MIC (Average Minimum Inhibition Concentration)” value is 0.391 µM.

Regarding `CC1C=CC=CC=CC=CC=CC=CC=CC(OC2OC(C)C(O)C(N)C2O)CC2OC(O)(CC(O)CC(O)C(O)CCC(O)CC(O)CC(=O)OC(C)C(C)C1O)CC(O)C2C(=O)NCCn1ncnn1` (stereo not drawn) [DN], the “MIC (Average Minimum Inhibition Concentration)” value stood at 0.391 µM.

Regarding `CC1C=CC=CC=CC=CC=CC=CC=CC(OC2OC(C)C(O)C(N)C2O)CC2OC(O)(CC(O)CC(O)C(O)CCC(O)CC(O)CC(=O)OC(C)C(C)C1O)CC(O)C2C(=O)NCCOCCN` (stereo not drawn) [DP], the “MIC (Average Minimum Inhibition Concentration)” value was determined as 0.391 µM.

For `COC(=O)C(CCCNC(=N)N)NC(=O)C1C(O)CC2(O)CC(O)CC(O)C(O)CCC(O)CC(O)CC(=O)OC(C)C(C)C(O)C(C)C=CC=CC=CC=CC=CC=CC=CC(OC3OC(C)C(O)C(N)C3O)CC1O2` (stereo not drawn) [DQ], the “MIC (Average Minimum Inhibition Concentration)” value is 0.406 µM.

For `CC1C=CC=CC=CC=CC=CC=CC=CC(OC2OC(C)C(O)C(N)C2O)CC2OC(O)(CC(O)CC(O)C(O)CCC(O)CC(O)CC(=O)OC(C)C(C)C1O)CC(O)C2C(=O)NC1CCC(N)CC1` (stereo not drawn) [DU], the “MIC (Average Minimum Inhibition Concentration)” value was 0.406 µM.

With `CC1C=CC=CC=CC=CC=CC=CC=CC(OC2OC(C)C(O)C(N)C2O)CC2OC(O)(CC(O)CC(O)C(O)CCC(O)CC(O)CC(=O)OC(C)C(C)C1O)CC(O)C2C(=O)NCCNC(=N)N` (stereo not drawn) [DV], the “MIC (Average Minimum Inhibition Concentration)” value turned out to be 0.406 µM.

On to `CC1C=CC=CC=CC=CC=CC=CC=CC(OC2OC(C)C(O)C(N)C2O)CC2OC(O)(CC(O)CC(O)C(O)CCC(O)CC(O)CC(=O)OC(C)C(C)C1O)CC(O)C2C(=O)N(CO)CCO` (stereo not drawn) [DW], for which the “MIC (Average Minimum Inhibition Concentration)” value was 0.419 µM.

For the compound `CC1C=CC=CC=CC=CC=CC=CC=CC(OC2OC(C)C(O)C(N)C2O)CC2OC(O)(CC(O)CC(O)C(O)CCC(O)CC(O)CC(=O)OC(C)C(C)C1O)CC(O)C2C(=O)NC1COC1` (stereo not drawn) [DX], the “MIC (Average Minimum Inhibition Concentration)” value came to 0.422 µM.

As to `CC1C=CC=CC=CC=CC=CC=CC=CC(OC2OC(C)C(O)C(N)C2O)CC2OC(O)(CC(O)CC(O)C(O)CCC(O)CC(O)CC(=O)OC(C)C(C)C1O)CC(O)C2C(=O)NCC(C)(C)C(N)=O` (stereo not drawn) [EC], the “MIC (Average Minimum Inhibition Concentration)” value is 0.422 µM.

As to `CC1C=CC=CC=CC=CC=CC=CC=CC(OC2OC(C)C(O)C(N)C2O)CC2OC(O)(CC(O)CC(O)C(O)CCC(O)CC(O)CC(=O)OC(C)C(C)C1O)CC(O)C2C(=O)NCCS(C)(=O)=O` (stereo not drawn) [EE], the “MIC (Average Minimum Inhibition Concentration)” value turned out to be 0.422 µM.

In the case of `CC1C=CC=CC=CC=CC=CC=CC=CC(OC2OC(C)C(O)C(N)C2O)CC2OC(O)(CC(O)CC(O)C(O)CCC(O)CC(O)CC(=O)OC(C)C(C)C1O)CC(O)C2C(=O)NCC1OC(O)C(O)C(O)C1O` (stereo not drawn) [EF], the “MIC (Average Minimum Inhibition Concentration)” value worked out at 0.430 µM.

On to `CC1C=CC=CC=CC=CC=CC=CC=CC(OC2OC(C)C(O)C(N)C2O)CC2OC(O)(CC(O)CC(O)C(O)CCC(O)CC(O)CC(=O)OC(C)C(C)C1O)CC(O)C2C(=O)NCB(O)O` (stereo not drawn) [EG], for which the “MIC (Average Minimum Inhibition Concentration)” value stood at 0.430 µM.

Take `CC1C=CC=CC=CC=CC=CC=CC=CC(OC2OC(C)C(O)C(N)C2O)CC2OC(O)(CC(O)CC(O)C(O)CCC(O)CC(O)CC(=O)OC(C)C(C)C1O)CC(O)C2C(=O)NC1CC1` (stereo not drawn) [EI]: the “MIC (Average Minimum Inhibition Concentration)” value came out at 0.438 µM.

Take `CC1C=CC=CC=CC=CC=CC=CC=CC(OC2OC(C)C(O)C(N)C2O)CC2OC(O)(CC(O)CC(O)C(O)CCC(O)CC(O)CC(=O)OC(C)C(C)C1O)CC(O)C2C(=O)NCCC#N` (stereo not drawn) [EK]: the “MIC (Average Minimum Inhibition Concentration)” value is 0.438 µM.

For `C=CCNC(=O)C1C(O)CC2(O)CC(O)CC(O)C(O)CCC(O)CC(O)CC(=O)OC(C)C(C)C(O)C(C)C=CC=CC=CC=CC=CC=CC=CC(OC3OC(C)C(O)C(N)C3O)CC1O2` (stereo not drawn) [EL], the “MIC (Average Minimum Inhibition Concentration)” value came out at 0.453 µM.

As for `COCC(C)NC(=O)C1C(O)CC2(O)CC(O)CC(O)C(O)CCC(O)CC(O)CC(=O)OC(C)C(C)C(O)C(C)C=CC=CC=CC=CC=CC=CC=CC(OC3OC(C)C(O)C(N)C3O)CC1O2` (stereo not drawn) [EM], the “MIC (Average Minimum Inhibition Concentration)” value was 0.469 µM.

With `CC1C=CC=CC=CC=CC=CC=CC=CC(OC2OC(C)C(O)C(N)C2O)CC2OC(O)(CC(O)CC(O)C(O)CCC(O)CC(O)CC(=O)OC(C)C(C)C1O)CC(O)C2C(=O)NCC(C)(C)F` (stereo not drawn) [EN], the “MIC (Average Minimum Inhibition Concentration)” value turned out to be 0.469 µM.

As to `CC1C=CC=CC=CC=CC=CC=CC=CC(OC2OC(C)C(O)C(N)C2O)CC2OC(O)(CC(O)CC(O)C(O)CCC(O)CC(O)CC(=O)OC(C)C(C)C1O)CC(O)C2C(=O)NCCNS(C)(=O)=O` (stereo not drawn) [EO], the “MIC (Average Minimum Inhibition Concentration)” value is 0.469 µM.

Regarding `CC1C=CC=CC=CC=CC=CC=CC=CC(OC2OC(C)C(O)C(N)C2O)CC2OC(O)(CC(O)CC(O)C(O)CCC(O)CC(O)CC(=O)OC(C)C(C)C1O)CC(O)C2C(=O)NCCCS(N)(=O)=O` (stereo not drawn) [EP], the “MIC (Average Minimum Inhibition Concentration)” value turned out to be 0.484 µM.

For `CC1C=CC=CC=CC=CC=CC=CC=CC(OC2OC(C)C(O)C(N)C2O)CC2OC(O)(CC(O)CC(O)C(O)CCC(O)CC(O)CC(=O)OC(C)C(C)C1O)CC(O)C2C(=O)NCCCNC(N)=O` (stereo not drawn) [EQ], the “MIC (Average Minimum Inhibition Concentration)” value came to 0.484 µM.

With `CC1C=CC=CC=CC=CC=CC=CC=CC(OC2OC(C)C(O)C(N)C2O)CC2OC(O)(CC(O)CC(O)C(O)CCC(O)CC(O)CC(=O)OC(C)C(C)C1O)CC(O)C2C(=O)NCCN1CCOC1=O` (stereo not drawn) [ER], the “MIC (Average Minimum Inhibition Concentration)” value is 0.484 µM.

Regarding `CC1C=CC=CC=CC=CC=CC=CC=CC(OC2OC(C)C(O)C(N)C2O)CC2OC(O)(CC(O)CC(O)C(O)CCC(O)CC(O)CC(=O)OC(C)C(C)C1O)CC(O)C2C(=O)NC1CNC1=O` (stereo not drawn) [ES], the “MIC (Average Minimum Inhibition Concentration)” value stood at 0.484 µM.

For the compound `CC1C=CC=CC=CC=CC=CC=CC=CC(OC2OC(C)C(O)C(N)C2O)CC2OC(O)(CC(O)CC(O)C(O)CCC(O)CC(O)CC(=O)OC(C)C(C)C1O)CC(O)C2C(=O)NC1COCC1O` (stereo not drawn) [EU], the “MIC (Average Minimum Inhibition Concentration)” value was found to be 0.500 µM.

The test is the same for the next values; noted with them: Table 12, C16 amides of C2'epiAmB.
`CC1C=CC=CC=CC=CC=CC=CC=CC(OC2OC(C)C(O)C(N)C2O)CC2OC(O)(CC(O)CC(O)C(O)CCC(O)CC(O)CC(=O)OC(C)C(C)C1O)CC(O)C2C(=O)NC1COCC1O` (stereo not drawn) [BP]: the “Average MIC” value amounted to 1.250 µM.

`CNC(=O)C1C(O)CC2(O)CC(O)CC(O)C(O)CCC(O)CC(O)CC(=O)OC(C)C(C)C(O)C(C)C=CC=CC=CC=CC=CC=CC=CC(OC3OC(C)C(O)C(N)C3O)CC1O2` (stereo not drawn) [BS]: the “Average MIC” value turned out to be 1.734 µM.

Consider `CC1C=CC=CC=CC=CC=CC=CC=CC(OC2OC(C)C(O)C(N)C2O)CC2OC(O)(CC(O)CC(O)C(O)CCC(O)CC(O)CC(=O)OC(C)C(C)C1O)CC(O)C2C(=O)NCCN` (stereo not drawn) [BT], for which the “Average MIC” value was found to be 1.750 µM.

For `CC1C=CC=CC=CC=CC=CC=CC=CC(OC2OC(C)C(O)C(N)C2O)CC2OC(O)(CC(O)CC(O)C(O)CCC(O)CC(O)CC(=O)OC(C)C(C)C1O)CC(O)C2C(=O)NCCC(N)=O` (stereo not drawn) [BU], the “Average MIC” value was found to be 2.563 µM.

As to `CC1C=CC=CC=CC=CC=CC=CC=CC(OC2OC(C)C(O)C(N)C2O)CC2OC(O)(CC(O)CC(O)C(O)CCC(O)CC(O)CC(=O)OC(C)C(C)C1O)CC(O)C2C(=O)NC1CC1` (stereo not drawn) [BV], the “Average MIC” value came to 3.063 µM.

In the case of `CC1C=CC=CC=CC=CC=CC=CC=CC(OC2OC(C)C(O)C(N)C2O)CC2OC(O)(CC(O)CC(O)C(O)CCC(O)CC(O)CC(=O)OC(C)C(C)C1O)CC(O)C2C(=O)NC1CCC1` (stereo not drawn) [BW], the “Average MIC” value amounted to 5.563 µM.

On to `COC(=O)C(Cc1c[nH]cn1)NC(=O)C1C(O)CC2(O)CC(O)CC(O)C(O)CCC(O)CC(O)CC(=O)OC(C)C(C)C(O)C(C)C=CC=CC=CC=CC=CC=CC=CC(OC3OC(C)C(O)C(N)C3O)CC1O2` (stereo not drawn) [BX], for which the “Average MIC” value came to 9.073 µM.
